Measurements reported in patent US9694005B2, “Nonsteroidal and steroidal compounds with potent androgen receptor down-regulation and anti prostate cancer activity” (University of Maryland, Baltimore, priority 2013, dated 2017).
Read-outs that look alike come from different tables or passages of the source.

Columns and labels:
LNCaP cells = experiment: Cell growth inhibition (MTT colorimetric assay), LNCaP; assay type: cell-based, human; conditions: Homo sapiens
Description: (§1) Compounds were evaluated on their ability to inhibit LNCaP cell (androgen sensitive AR-mutant), C4-2B and CWR22Rv1 (CRPC cell lines) viability at 1 and 10 μM concentrations by the MTT assy.
(§2) The cells were seeded in 96-well plates (Corning Costar) at a density of 5×10^3 cells per well. Cells were allowed to adhere to the plate for 24 hours and then treated with various concentrations of compounds dissolved in 95% EtOH. Cells were treated for 7 days with renewal of test compound and media on day 4. On the 7th day, medium was renewed and MTT (3-(4,5-dimethylthiazol-2-yl)-2,5-diphenyl-2H-tetrazolium bromide) (Sigma, St Louis, Mo., USA) solution (0.5 mg MTT per ml of media) was added to the medium such that the ratio of MTT: medium was 1:10. The cells were incubated with MTT for 2 hours. The medium was then aspirated and DMSO was added to solubilize the violet MTT-formazan product. The absorbance at 562 nm was measured by spectrophotometry (Biotek Inc.).

CWR22Rv1 = experiment: Cell growth inhibition (MTT colorimetric assay), CWR22Rv1; assay type: cell-based; conditions: Homo sapiens
Description: as §1, §2

full length AR = experiment: AR down-regulation (FIG. 9H); assay type: cell-based, human
[1] = test system: PARP cleavage, CDC25c, Mnk2, Cyclin D1, Cox-2 and N-Cadherin in LNCaP cells; experiment: Effects of compounds on oncogenes at the protein level, LNCaP cells; assay type: cell-based, human; conditions: FIGS. 9A and 9C
Description: (§3) In the experiments show in FIG. 9, LNCaP and CWR22Rv1 cells were treated VN/124-1 and analogs at varying time points and effects on significant cancer cells promoting genes investigated at the protein level.

[2] = test system: N-Cadherin, AR3, Mnk1/2, MMP-2, Ezh2, Mc1-1, eIF4E phosphorylation in CWR22Rv1 cells; experiment: Effects of compounds on oncogenes at the protein level, CWR22Rv1 cells; assay type: cell-based, human; conditions: FIGS. 9B and 9G
PC3 cells = experiment: Cell migration of PC3 cells; assay type: cell-based, human; conditions: 5 μM, after 12 hours; FIG. 10
[3] = test system: LNCaP cell, C4-2B and CWR22Rv1; experiment: Cell growth inhibition (MTT), anticancer activity, cell line not given; assay type: cell-based, human; conditions: cell line not stated
Description: as §1

AR protein = target: T1, AR protein (Homo sapiens, UniProt P10275, T878A); experiment: Western blotting, AR protein levels in LNCaP cells; assay type: cell-based; conditions: 15 μM of each compound for 24 h (FIG. 8)
T1 construct: Effect of compounds on suppression of AR protein levels in LNCaP cells; endogenous in cells; host or cells: LNCaP
T1 sequence (P10275 1-920 T878A): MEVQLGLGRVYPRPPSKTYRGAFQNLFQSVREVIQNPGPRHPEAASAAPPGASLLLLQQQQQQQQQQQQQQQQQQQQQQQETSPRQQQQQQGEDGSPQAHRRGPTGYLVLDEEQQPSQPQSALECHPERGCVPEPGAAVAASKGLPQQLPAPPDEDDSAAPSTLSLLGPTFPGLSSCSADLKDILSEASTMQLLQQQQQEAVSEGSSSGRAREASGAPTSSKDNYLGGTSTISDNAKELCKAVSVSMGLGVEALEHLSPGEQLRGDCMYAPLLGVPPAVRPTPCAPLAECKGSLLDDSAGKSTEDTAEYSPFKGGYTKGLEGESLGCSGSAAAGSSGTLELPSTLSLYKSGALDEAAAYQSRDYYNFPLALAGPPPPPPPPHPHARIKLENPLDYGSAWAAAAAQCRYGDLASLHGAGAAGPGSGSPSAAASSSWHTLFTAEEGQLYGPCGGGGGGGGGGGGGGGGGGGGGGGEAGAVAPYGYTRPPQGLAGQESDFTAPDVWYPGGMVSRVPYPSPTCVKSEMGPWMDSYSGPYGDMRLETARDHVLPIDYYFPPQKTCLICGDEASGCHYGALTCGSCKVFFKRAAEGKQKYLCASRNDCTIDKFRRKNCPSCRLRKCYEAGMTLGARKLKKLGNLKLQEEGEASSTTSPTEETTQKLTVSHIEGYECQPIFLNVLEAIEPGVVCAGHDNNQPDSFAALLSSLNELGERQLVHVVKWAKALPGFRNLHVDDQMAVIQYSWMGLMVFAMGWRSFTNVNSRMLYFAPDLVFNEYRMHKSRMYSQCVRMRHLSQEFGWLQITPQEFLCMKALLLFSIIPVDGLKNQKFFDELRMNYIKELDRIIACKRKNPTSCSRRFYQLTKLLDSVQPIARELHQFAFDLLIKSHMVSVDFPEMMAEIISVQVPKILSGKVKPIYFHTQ
Description: The ability of various compounds to down-regulate AR protein expressions was determined by western blotting.

[4] = test system: full length AR and the splice variants ARs; experiment: AR down-regulation in CWR22Rv1 (FIGS. 9D, 9E, 9F); assay type: cell-based, human; conditions: 9E and 9F
Description: as §3

[5] = LNCaP, 168 h, Steroidal VNPP compounds table, treated for 7 days, read-out: GI50 Values High Passage LNCaP
[6] = LNCaP, 168 h, Steroidal VNPP compounds table, treated for 7 days, read-out: GI50 Values Low Passage LNCaP
[7] = CWR22Rv1, 168 h, Steroidal VNPP compounds table, treated for 7 days
[8] = Table 10, LNCaP high passage, read-out: GI50 Values LNCaP (High Passage)
[9] = Table 10, LNCaP low passage, concentration required to inhibit cell growth by 50%, read-out: GI50 Values LNCaP (Low Passage)
[10] = LNCaP, 168 h, Non-steroidal VNPP compounds table, treated for 7 days, read-out: GI50 Values High Passage LNCaP
[11] = CWR22Rv1, 168 h, Non-steroidal VNPP compounds table, treated for 7 days
[12] = LNCaP, 168 h, Non-steroidal VNPP compounds table, treated for 7 days, read-out: GI50 Values Low Passage LNCaP

`c1cc(-c2ccc(Cn3cnc4ccccc43)cc2)cc(-c2nn[nH]n2)c1` [VNPP361, 5-{3-[4-(benzimidazolylmethyl)phenyl]phenyl}-1H-1,2,3,4-tetraazole] gave a melting point of 231 to 233 °C.
Work on `C[C@]12CC[C@@H](n3ccnc3)CC1=CC[C@@H]1[C@@H]2CC[C@]2(C)C(n3cnc4ccccc43)=CC[C@@H]12` [VNPP433-3α, 3α-(1H-imidazol-1-yl)-17-(1H-benzimidazol-1-yl) androsta-5,16-diene] yielded a GI50 (LNCaP cells; [5]) of 8.91 µM, a GI50 (LNCaP cells; [6]) of 4.04 µM and a GI50 (CWR22Rv1; [7]) of 9.88 µM. The “AR down-regulation against full length AR” value (full length AR) was “activity (AR down-regulation)”.
In the case of `C[C@]12CC[C@H](OCc3ccncc3)CC1=CC[C@@H]1[C@@H]2CC[C@]2(C)C(n3cnc4ccccc43)=CC[C@@H]12` [VNPP414, 3β-(pyridine-4-ylmethoxy)-17-(1H-benzimidazol-1-yl) androsta-5,16-diene], the GI50 (LNCaP cells; [5]) is reported as 2.45 µM, the GI50 (LNCaP cells; [6]) is reported as 0.87 µM and the GI50 (LNCaP cells; [8]) is reported as 2.45 µM. It also gave a GI50 (LNCaP cells; [9]) of 0.87 µM, a GI50 (CWR22Rv1; [7]) of 3.24 µM and a GI50 (CWR22Rv1; CWR22Rv1, Table 10) of 3.24 µM. For the same molecule, the “Expression of CDC25c, Mnk2, Cyclin D1, Cox-2 and N-Cadherin” value [1] was “reduced”, the “PARP cleavage (signature of apoptosis)” value [1] was “significant increase” and the “Phosphorylation of eIF4E” value [2] was “downregulated”. For the same molecule, the “Protein expression of N-Cadherin, AR3, Mnk1/2, MMP-2, Ezh2, Mc1-1” value [2] was “decreased” and the “Migration of PC3 cells” value (PC3 cells) was “profoundly inhibit migration”.
In the case of `C[C@]12CCC3CC31[C@H](n1ccnc1)CC1C3CC=C(n4cnc5ccccc54)C3CCC12` (stereo partly drawn) [VNPP433-6β, 6β-imidazol-1yl-3,5-cycloandrostan-17-benzimidazole-1-yl-16-ene], the GI50 (LNCaP cells; [5]) is reported as 6.61 µM, the GI50 (CWR22Rv1; [7]) is reported as 12.3 µM and the “AR down-regulation against full length AR” value (full length AR) is reported as “activity (AR down-regulation)”.
With `COc1cccc(-c2ccc(Cn3cnc4ccccc43)cc2)c1` [VNPP347B, 3-[4-(benzimidazolylmethyl)phenyl]-1-methoxybenzene] the GI50 (LNCaP cells; [10]) was 4.41 µM and the GI50 (CWR22Rv1; [11]) was 14 µM.
With `CNC(=O)c1ccc(N2C(=S)N(c3ccc(C#N)c(C(F)(F)F)c3)C(=O)C2(C)C)cc1F` [MDV3100, reference compound] the GI50 (LNCaP cells; [5]) was 4.85 µM and the GI50 (LNCaP cells; [9]) was 4.85 µM.
With `C[C@]12CC[C@H](n3cnc4ccccc43)CC1=CC[C@@H]1[C@@H]2CC[C@]2(C)C(n3cnc4ccccc43)=CC[C@@H]12` [VNPP433 (A2), 3β-(1H-benzimidazol-1-yl)-17-(1H-benzimidazol-1-yl)androsta-5,16-diene] the “AR down-regulation against full length AR” value (full length AR) was “activity (AR down-regulation)”.
With `C[C@]12CC[C@H](OC(=S)n3ccnc3)CC1=CCC1C2CC[C@]2(C)C(n3cnc4ccccc43)=CCC12` (stereo partly drawn) [VNPP397, 3β-(1H-imidazole-1-thiocarboxylate)-17-(1H-benzimidazol-1-yl)androsta-5,16-diene] the GI50 (LNCaP cells; [5]) was 9.57 µM and the GI50 (CWR22Rv1; [7]) was 7.52 µM.
Work on `COc1ccc(S(=O)(=O)Nc2cccc(-n3cnc4ccccc43)c2)cc1` [VNPP431, (3-benzimidazolylphenyl)[(4-methoxyphenyl)sulfonyl]amine] yielded a GI50 (LNCaP cells; [10]) of 3.14 µM, a GI50 (LNCaP cells; [12]) of 5.23 µM and a GI50 (CWR22Rv1; [11]) of 4.78 µM.
With `C[C@]12CC[C@H](n3ccnc3)CC1=CC[C@@H]1[C@@H]2CC[C@]2(C)C(n3cnc4ccccc43)=CC[C@@H]12` [VNPP433-3β, 3β-(1H-imidazol-1-yl)-17-(1H-benzimidazol-1-yl) androsta-5,16-diene] the GI50 (LNCaP cells; [5]) was 1.64 µM, the GI50 (LNCaP cells; [6]) was 0.81 µM and the GI50 (LNCaP cells; [8]) was 1.64 µM. The GI50 (LNCaP cells; [9]) was 0.81 µM, the GI50 (CWR22Rv1; [7]) was 2.54 µM and the GI50 (CWR22Rv1; CWR22Rv1, Table 10) was 2.54 µM. For the same molecule, the “AR down-regulation against full length AR” value (full length AR) was “activity (AR down-regulation)”.
With `N#Cc1cccc(-c2ccc(Cn3cnc4ccccc43)cc2)c1` [VNPP358, 3-[4-(benzimidazolylmethyl)phenyl]benzenecarbonitrile] the GI50 (LNCaP cells; [10]) was 3.5 µM, the GI50 (LNCaP cells; [12]) was 3.71 µM and the GI50 (CWR22Rv1; [11]) was 10.5 µM.
`CO[C@H]1CC[C@@]2(C)C(=CC[C@@H]3[C@@H]2CC[C@]2(C)C(n4cnc5ccccc54)=CC[C@@H]32)C1` [VNPP412, 3β-(methoxy)-17-(1H-benzimidazol-1-yl) androsta-5,16-diene] showed a GI50 (LNCaP cells; [5]) of 8.71 µM and a GI50 (CWR22Rv1; [7]) of 7.5 µM.
For `C[C@]12CCC3c4ccc(O)cc4CCC3C1CC=C2n1cnc2ccccc21` (stereo partly drawn) [VNPP338], the “Anticancer activity (SAR statement)” value [3] was “equal potent anticancer activity to compound VN/124-1”, the “AR down-regulating action (AR protein levels, western blot)” value (AR protein) was “potent AR down-regulating agents” and the “AR down-regulation against full length AR and the splice variants ARs” value [4] was “showed activity (AR down-regulation)”.
Molecule `Oc1ccc2cc(-c3cccc(-n4cnc5ccccc54)c3)ccc2c1` [VNPP372/2, 6-(3-benzimidazolylphenyl)naphthalen-2-ol] has a GI50 (LNCaP cells; [10]) of 6.09 µM, a GI50 (LNCaP cells; [12]) of 5.77 µM and a GI50 (CWR22Rv1; [11]) of 8.91 µM.
For `C[C@]12CCC3c4ccc(C(=O)O)cc4CCC3C1CC=C2n1cnc2ccccc21` (stereo partly drawn) [VNPP341], the “Anticancer activity (SAR statement)” value [3] was “moderately acting”, the “AR down-regulating action (AR protein levels, western blot)” value (AR protein) was “AR up-regulators” and the “AR down-regulation against full length AR and the splice variants ARs” value [4] was “showed activity (AR down-regulation)”.
In the case of `c1cc(-c2ccc(CCn3cnc4ccccc43)cc2)cc(-c2nn[nH]n2)c1` [VNPP364, 5-{3-[4-(benzimidazolylethyl)phenyl]phenyl}-1H-1,2,3,4-tetraazole], the melting point is reported as 223 to 225 °C.
